Measurements from US20240158370A1, “CK1 alpha AND DUAL CK1 alpha / GSPT1 DEGRADING COMPOUNDS” (Innovo Therapeutics, Inc., priority 2022, published 2024).

Experiments:
CK1α = biological target: T1, CK1α (Homo sapiens, UniProt P48729+Q96SW2); test: HiBiT degradation assay, CK1α, Procedure A; format: cell-based; conditions: six hours incubation
T1 construct: CSNK1A1-HiBit KI HEK293(LgBit) Cells; host or cells: HEK293(LgBit) knock-in cells
Method: (§1) Compounds were spotted onto Cornin 384-Well, Cell Culture-Treated, Flat-Bottom, Low Flange Microplate (Fisher Scientific, Catalog #07-201-013) using a Tecan D300e digital dispenser. Ten-point dose response curves spanning from 10 μM to 0.005 μM with a 0.1% DMSO tolerance were used.
(§2) Cells were dissociated from tissue 182 cm^2 Tissue Culture Flask (CellTreat Catalog #229351) by washing the cells with PBS (Fisher Scientific Catalog #BP3994) followed by dissociation with Trypsin-EDTA (0.25%) (Thermo Scientific Catalog #25200056). Trysin was neutralized and cells were resuspended with DMEM+10% FBS. Cells were centrifuged for 5 minutes at 1200 RPMs. Cell culture media was aspirated off and cells were resuspended with DMEM+10% FBS. Cell density was determined using a Denovix CellDrop BF cell counter. Cell density was adjusted to 1×10^6 cells/ml. 40 μl of cells was added to compound treated tissue culture plates and incubated for six hours at 37° C. After six hours, cell culture plates were removed from tissue culture incubator and cooled to room temperature. 40 μl of Nano-GloHiBiT Lytic Detection Reagent (Promega, Catalog #N3040) was added to each well. Plates were placed on an orbital shaker (600 rpm) for 20 minutes. Luminescence was measured using an Envsion plate reader (Perkin Elmer). DC50 curves and Ymin were generated using a 4-parameter curve fit with GraphPad Prism software (Prism Corporation).
(§3) Results from the HiBiT assay (DC50 (nM) and Ymin (% remaining)) are shown below. All CK1α data was generated according to Procedure A. GSPT1 data for Examples 1-600, 603-620 and 703-705 was generated according to Procedure A. GSPT1 data for Examples 601, 621-702 and 706-735 was generated according to Procedure B.

GSPT1 = GSPT1 (Homo sapiens, UniProt P15170+Q96SW2); test: HiBiT degradation assay, GSPT1, Procedure A; format: cell-based; parameters: HiBit-GSPT1 KI HEK293(LgBit) Cells; host or cells: HEK293(LgBit) knock-in cells; conditions: six hours incubation
Method: as §1, §2, §3

T1 sequence (P48729 whole entry): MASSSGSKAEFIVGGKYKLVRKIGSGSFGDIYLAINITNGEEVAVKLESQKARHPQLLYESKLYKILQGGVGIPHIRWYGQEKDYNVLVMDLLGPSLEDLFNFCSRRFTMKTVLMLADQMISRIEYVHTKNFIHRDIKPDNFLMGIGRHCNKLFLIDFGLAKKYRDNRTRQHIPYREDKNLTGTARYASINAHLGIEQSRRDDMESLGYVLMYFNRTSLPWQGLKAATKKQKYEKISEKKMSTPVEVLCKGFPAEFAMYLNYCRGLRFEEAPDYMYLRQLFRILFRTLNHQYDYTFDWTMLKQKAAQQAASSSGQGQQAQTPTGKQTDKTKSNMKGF
T1 sequence (Q96SW2 whole entry): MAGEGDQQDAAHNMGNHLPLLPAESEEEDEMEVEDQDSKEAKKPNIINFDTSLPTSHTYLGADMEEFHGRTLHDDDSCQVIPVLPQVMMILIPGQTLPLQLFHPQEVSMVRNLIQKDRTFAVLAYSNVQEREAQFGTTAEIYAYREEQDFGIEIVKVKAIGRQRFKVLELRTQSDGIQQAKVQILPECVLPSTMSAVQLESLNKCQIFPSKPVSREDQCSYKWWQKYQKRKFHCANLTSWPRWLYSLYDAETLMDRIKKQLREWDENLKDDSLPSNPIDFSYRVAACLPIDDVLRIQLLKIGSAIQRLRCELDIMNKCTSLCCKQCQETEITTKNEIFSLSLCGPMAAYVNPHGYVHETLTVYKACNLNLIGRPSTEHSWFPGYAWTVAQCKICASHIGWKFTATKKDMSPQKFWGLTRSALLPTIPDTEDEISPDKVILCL
T1 sequence (Q16531 whole entry partner): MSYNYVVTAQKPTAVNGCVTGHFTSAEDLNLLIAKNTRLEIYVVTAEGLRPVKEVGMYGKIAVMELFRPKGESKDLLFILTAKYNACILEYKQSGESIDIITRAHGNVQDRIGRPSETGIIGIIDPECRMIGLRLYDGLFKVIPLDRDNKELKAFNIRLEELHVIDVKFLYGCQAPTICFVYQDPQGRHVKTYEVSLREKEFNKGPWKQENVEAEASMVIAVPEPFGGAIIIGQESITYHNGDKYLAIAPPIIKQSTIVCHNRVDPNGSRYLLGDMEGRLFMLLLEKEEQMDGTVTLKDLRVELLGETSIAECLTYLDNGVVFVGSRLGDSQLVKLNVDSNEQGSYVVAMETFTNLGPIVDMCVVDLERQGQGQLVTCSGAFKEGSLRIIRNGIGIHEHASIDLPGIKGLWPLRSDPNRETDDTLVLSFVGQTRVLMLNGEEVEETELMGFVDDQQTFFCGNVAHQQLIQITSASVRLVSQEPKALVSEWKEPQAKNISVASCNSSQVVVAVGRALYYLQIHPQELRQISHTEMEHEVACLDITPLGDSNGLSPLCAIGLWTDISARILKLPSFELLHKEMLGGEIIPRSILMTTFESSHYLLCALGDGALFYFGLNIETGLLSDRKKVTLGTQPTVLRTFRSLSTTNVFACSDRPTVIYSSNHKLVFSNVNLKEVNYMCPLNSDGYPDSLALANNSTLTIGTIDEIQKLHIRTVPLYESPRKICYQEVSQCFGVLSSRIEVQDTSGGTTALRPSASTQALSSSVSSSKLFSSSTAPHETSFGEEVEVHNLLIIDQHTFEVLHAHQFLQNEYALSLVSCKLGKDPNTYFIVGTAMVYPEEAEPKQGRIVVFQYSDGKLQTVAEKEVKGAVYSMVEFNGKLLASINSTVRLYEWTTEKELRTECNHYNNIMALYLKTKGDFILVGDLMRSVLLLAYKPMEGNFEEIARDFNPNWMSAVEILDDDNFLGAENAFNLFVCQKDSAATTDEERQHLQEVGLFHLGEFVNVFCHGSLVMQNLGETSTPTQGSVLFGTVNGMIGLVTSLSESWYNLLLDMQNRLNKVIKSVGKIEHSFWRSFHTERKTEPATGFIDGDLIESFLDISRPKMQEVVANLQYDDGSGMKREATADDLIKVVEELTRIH
GSPT1, sequence (P15170 whole entry): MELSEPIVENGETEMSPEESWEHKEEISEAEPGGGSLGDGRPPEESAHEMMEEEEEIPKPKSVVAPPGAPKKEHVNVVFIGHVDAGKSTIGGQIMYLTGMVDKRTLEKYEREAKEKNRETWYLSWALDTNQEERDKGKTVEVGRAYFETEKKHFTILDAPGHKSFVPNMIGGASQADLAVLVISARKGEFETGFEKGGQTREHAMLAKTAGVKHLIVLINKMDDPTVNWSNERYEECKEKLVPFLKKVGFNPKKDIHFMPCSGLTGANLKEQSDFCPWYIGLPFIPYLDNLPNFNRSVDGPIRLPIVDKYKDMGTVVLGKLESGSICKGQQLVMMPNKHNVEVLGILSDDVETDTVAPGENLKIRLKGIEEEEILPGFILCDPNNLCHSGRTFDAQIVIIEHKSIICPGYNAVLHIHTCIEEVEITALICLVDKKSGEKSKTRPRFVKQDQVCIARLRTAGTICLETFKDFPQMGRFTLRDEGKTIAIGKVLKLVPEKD
GSPT1, sequence (Q96SW2 whole entry): as the sequence (Q96SW2 whole entry) above
GSPT1, sequence (Q16531 whole entry partner): as the sequence (Q16531 whole entry partner) above

SMILES | CK1α Ymin (CK1α) | DC50 (CK1α) [µM] | DC50 (GSPT1) [µM] | GSPT1 Ymin (GSPT1)
Cc1noc(-c2ccccc2)c1-c1ccc2c(c1)CN(C1CCC(=O)NC1=O)C2=O (stereo not drawn) [Example 29, 3-(5-(3-Methyl-5-phenylisoxazol-4-yl)-1-oxoisoindolin-2-yl)piperidine-2,6-dione] | F (F = >75-100% remaining) | ≥ 0.025 | ≥ 0.025 | F (F = >75-100% remaining)
Cc1n[nH]c(-c2ccccc2)c1-c1ccc2c(c1)CN(C1CCC(=O)NC1=O)C2=O (stereo not drawn) [Example 30, 3-(5-(3-Methyl-5-phenyl-1H-pyrazol-4-yl)-1-oxoisoindolin-2-yl) piperidine-2,6-dione] | E (E = >25-75% remaining) | ≥ 0.025 | ≥ 0.025 | F (F = >75-100% remaining)
O=C1CCC(N2Cc3cc(-c4sncc4-c4ccccc4)ccc3C2=O)C(=O)N1 (stereo not drawn) [Example 31, 3-(1-Oxo-5-(4-phenylisothiazol-5-yl)isoindolin-2-yl) piperidine-2,6-dione] | E (E = >25-75% remaining) | ≥ 0.025 | ≥ 0.025 | F (F = >75-100% remaining)
O=C1CCC(N2Cc3cc(-n4nccc4-c4ccccc4)ccc3C2=O)C(=O)N1 (stereo not drawn) [Example 33, 3-(1-Oxo-5-(5-phenyl-1H-pyrazol-1-yl)isoindolin-2-yl)piperidine-2,6-dione] | E (E = >25-75% remaining) | < 0.025 | ≥ 0.025 | E (E = >25-75% remaining)
Cn1nc(-c2ccccc2)cc1-c1ccc2c(c1)CN(C1CCC(=O)NC1=O)C2=O (stereo not drawn) [Example 35, 3-(5-(1-Methyl-3-phenyl-1H-pyrazol-5-yl)-1-oxoisoindolin-2-yl)piperidine-2,6-dione] | F (F = >75-100% remaining) | ≥ 0.025 | ≥ 0.025 | F (F = >75-100% remaining)
O=C1CCC(N2Cc3cc(-c4c[nH]nc4-c4ccncc4)ccc3C2=O)C(=O)N1 (stereo not drawn) [Example 38, 3-(1-Oxo-5-(3-(pyridin-4-yl)-1H-pyrazol-4-yl)isoindolin-2-yl)piperidine-2,6-dione] | E (E = >25-75% remaining) | ≥ 0.025 | ≥ 0.025 | F (F = >75-100% remaining)
O=C1CCC(N2Cc3cc(-c4nc(-c5ccccc5)co4)ccc3C2=O)C(=O)N1 (stereo not drawn) [Example 42, 3-(1-Oxo-5-(4-phenyloxazol-2-yl)isoindolin-2-yl)piperidine-2,6-dione] | E (E = >25-75% remaining) | < 0.025 | ≥ 0.025 | F (F = >75-100% remaining)
Cn1c(C2CC2)nc(-c2ccc3c(c2)CN(C2CCC(=O)NC2=O)C3=O)c1-c1cccnc1 (stereo not drawn) [Example 44, 3-(5-(2-Cyclopropyl-1-methyl-5-(pyridin-3-yl)-1H-imidazol-4-yl)-1-oxoisoindolin-2-yl)piperidine-2,6-dione] | C (C = 0-10% remaining) | < 0.025 | ≥ 0.025 | F (F = >75-100% remaining)
Cn1c(C2CC2)nc(-c2ccc3c(c2)CN(C2CCC(=O)NC2=O)C3=O)c1-c1ccncc1 (stereo not drawn) [Example 45, 3-(5-(2-Cyclopropyl-1-methyl-5-(pyridin-4-yl)-1H-imidazol-4-yl)-1-oxoisoindolin-2-yl)piperidine-2,6-dione] | C (C = 0-10% remaining) | < 0.025 | ≥ 0.025 | F (F = >75-100% remaining)
O=C1CCC(N2Cc3cc(-c4c[nH]nc4C4CC4)ccc3C2=O)C(=O)N1 (stereo not drawn) [Example 47, 3-(5-(3-Cyclopropyl-1H-pyrazol-4-yl)-1-oxoisoindolin-2-yl)piperidine-2,6-dione] | E (E = >25-75% remaining) | ≥ 0.025 | ≥ 0.025 | F (F = >75-100% remaining)
Cn1c(C2CCCCC2)nc(-c2ccc3c(c2)CN(C2CCC(=O)NC2=O)C3=O)c1-c1ccccc1 (stereo not drawn) [Example 49, 3-(5-(2-Cyclohexyl-1-methyl-5-phenyl-1H-imidazol-4-yl)-1-oxoisoindolin-2-yl)piperidine-2,6-dione] | C (C = 0-10% remaining) | < 0.025 | < 0.025 | F (F = >75-100% remaining)
Cn1c(C2CCOCC2)nc(-c2ccc3c(c2)CN(C2CCC(=O)NC2=O)C3=O)c1-c1ccccc1 (stereo not drawn) [Example 50, 3-(5-(1-methyl-5-phenyl-2-(tetrahydro-2H-pyran-4-yl)-1H-imidazol-4-yl)-1-oxoisoindolin-2-yl)piperidine-2,6-dione] | C (C = 0-10% remaining) | < 0.025 | ≥ 0.025 | F (F = >75-100% remaining)
O=C1CCC(N2Cc3cc(-c4nc(C(F)(F)F)[nH]c4-c4ccccc4)ccc3C2=O)C(=O)N1 (stereo not drawn) [Example 53, 3-(1-Oxo-5-(5-phenyl-2-(trifluoromethyl)-1H-imidazol-4-yl)isoindolin-2-yl)piperidine-2,6-dione] | C (C = 0-10% remaining) | < 0.025 | ≥ 0.025 | E (E = >25-75% remaining)
O=C1CCC(N2Cc3cc(-c4c[nH]c(-c5ccccc5)n4)ccc3C2=O)C(=O)N1 (stereo not drawn) [Example 54, 3-(1-Oxo-5-(2-phenyl-1H-imidazol-4-yl)isoindolin-2-yl)piperidine-2,6-dione] | C (C = 0-10% remaining) | < 0.025 | ≥ 0.025 | F (F = >75-100% remaining)
Cn1ncc(-c2ccc3c(c2)CN(C2CCC(=O)NC2=O)C3=O)c1-c1cccc(N2CCCC2)c1 (stereo not drawn) [Example 55] | E (E = >25-75% remaining) | < 0.025 | ≥ 0.025 | F (F = >75-100% remaining)
CNC(=O)c1ccc(-c2c(-c3ccc4c(c3)CN(C3CCC(=O)NC3=O)C4=O)cnn2C)cc1 (stereo not drawn) [Example 56] | D (D = >10- 25% remaining) | ≥ 0.025 | ≥ 0.025 | F (F = >75-100% remaining)

Continued, values first:

CK1α Ymin (CK1α) | DC50 (CK1α) [µM] | DC50 (GSPT1) [µM] | GSPT1 Ymin (GSPT1) | SMILES
E (E = >25-75% remaining) | ≥ 0.025 | ≥ 0.025 | F (F = >75-100% remaining) | Cn1ncc(-c2ccc3c(c2)CN(C2CCC(=O)NC2=O)C3=O)c1-c1ccc(C#N)cc1 (stereo not drawn) [Example 57]
E (E = >25-75% remaining) | ≥ 0.025 | ≥ 0.025 | F (F = >75-100% remaining) | Cn1ncc(-c2ccc3c(c2)CN(C2CCC(=O)NC2=O)C3=O)c1-c1ccc(F)c(C#N)c1 (stereo not drawn) [Example 58]
E (E = >25-75% remaining) | < 0.025 | ≥ 0.025 | F (F = >75-100% remaining) | Cn1ncc(-c2ccc3c(c2)CN(C2CCC(=O)NC2=O)C3=O)c1-c1cccc(C(F)F)c1 (stereo not drawn) [Example 59]
E (E = >25-75% remaining) | < 0.025 | ≥ 0.025 | F (F = >75-100% remaining) | CC(C)c1ccccc1-c1c(-c2ccc3c(c2)CN(C2CCC(=O)NC2=O)C3=O)cnn1C (stereo not drawn) [Example 60]
E (E = >25-75% remaining) | < 0.025 | ≥ 0.025 | F (F = >75-100% remaining) | Cn1ncc(-c2ccc3c(c2)CN(C2CCC(=O)NC2=O)C3=O)c1-c1ccc(OCc2ccccc2)cc1 (stereo not drawn) [Example 61]
D (D = >10- 25% remaining) | < 0.025 | ≥ 0.025 | F (F = >75-100% remaining) | Cn1ncc(-c2ccc3c(c2)CN(C2CCC(=O)NC2=O)C3=O)c1-c1ccc(N2CCOCC2)cc1 (stereo not drawn) [Example 62]
E (E = >25-75% remaining) | < 0.025 | ≥ 0.025 | F (F = >75-100% remaining) | Cn1ncc(-c2ccc3c(c2)CN(C2CCC(=O)NC2=O)C3=O)c1-c1ccc(C(F)(F)F)cc1 (stereo not drawn) [Example 63]
D (D = >10- 25% remaining) | < 0.025 | ≥ 0.025 | F (F = >75-100% remaining) | COc1ccc(-c2c(-c3ccc4c(c3)CN(C3CCC(=O)NC3=O)C4=O)cnn2C)c(Cl)c1 (stereo not drawn) [Example 65]
E (E = >25-75% remaining) | ≥ 0.025 | ≥ 0.025 | F (F = >75-100% remaining) | Cc1sccc1-c1c(-c2ccc3c(c2)CN(C2CCC(=O)NC2=O)C3=O)cnn1C (stereo not drawn) [Example 66]
E (E = >25-75% remaining) | < 0.025 | ≥ 0.025 | F (F = >75-100% remaining) | Cn1ncc(-c2ccc3c(c2)CN(C2CCC(=O)NC2=O)C3=O)c1-c1ccccc1F (stereo not drawn) [Example 67]
D (D = >10- 25% remaining) | < 0.025 | ≥ 0.025 | F (F = >75-100% remaining) | Cn1ncc(-c2ccc3c(c2)CN(C2CCC(=O)NC2=O)C3=O)c1-c1ccc(Cl)s1 (stereo not drawn) [Example 68]
